In brackets after ≈: the same amount, converted by molar mass.
How the values were obtained:
[1] = Thermodynamic aqueous solubility; format: physicochemical; details: for Equilibrated form in suspension: XRPD of equilibrated solids after the solubility measurement in water, ambient temperature
Experimental: The thermodynamic solubility values of Compound 5 using Crystalline Forms I and II as starting forms were determined in water. In one vial, 10 mg of Crystalline Form I of Compound 5 and 1 mL of water were stirred at ambient temperature for 24 hours at 400 RPM. In a separate vial, 10 mg of Crystalline Form II of Compound 5 was suspended in 1 mL of water, and then the suspension was stirred at ambient temperature for 48 hours at 200 RPM. The equilibrated solids were then separated by dispensing 500 μL of the suspension into a 1.5-mL centrifuge tube, and then centrifuged for 5 minutes at 13,200 RPM using an Eppendorf 5415D centrifuge. As much of the supernatant as possible was decanted using a Pasteur pipette and dispensed into a new 1.5-mL centrifuge tube. The samples were again centrifuged for 5 minutes at 13,200 RPM using the same instrument. The Compound 5 content and pH values of the supernatant were determined by HPLC and pH meter, respectively. The pH of the supernatant was determined to be 9.16.

[2] = Wet milling to nanocrystals: particle size and crystal form stability (XRPD); format: physicochemical; details: XRPD of milled samples compared with neat form
Experimental: Crystalline Forms of Compound 5 were wet-milled in the presence of stabilizers that enable the preparation of mucus-penetrating particles (MPP) or nanocrystals. The same milling process was employed for all samples. Milling media, specifically 0.5 mL bulk volume of 1-mm ceria-stabilized zirconium oxide beads, was added to a glass vial. Approximately 25 mg of Compound 5 Crystalline Form I or Crystalline Form II and 0.475 mL of milling solution, as specified in each example, were then added to the vial yielding a slurry of 5% Compound 5. A magnetic stir bar was used to agitate the beads, stirring at approximately 500 rpm.
Neat Crystalline Form I of Compound 5 synthesized according to Example 1 was wet-milled in the presence of PLURONIC® F127 (also known as Poloxamer 407) or polyvinyl alcohol with an average MW of 31 kDa and average hydrolysis of 88% (PVA), and a buffer.
Loss of crystallinity and possible form change to amorphous and Crystalline Form II occurred during milling.
Neat Crystalline Form II of Compound 5 prepared in accordance with Example 2 was wet-milled the presence of PLURONIC® F127 (also known as Poloxamer 407) and a buffer.
Approximately 100 μL of Sample A was transferred directly onto the surface of the sample XRPD holder, then was allowed to air dry.

Compound | Equilibrated form in suspension [1] | Equilibrated form in suspension ([1]; listed as I) | solubility ([1]; water, 22 °C, pH 9.16, water, thermodynamic from solid, ambient temperature (ca. 22° C.), 10 mg in 1 mL stirred 24 h (Form I) or 48 h (Form II), supernatant pH 9.16, HPLC) [µg/mL] | Stability of crystalline form to the milling process ([2]; listed as Crystalline Form I of Compound 5) | Solubility in Water ([1]; water, ambient temperature (ca. 22° C.), 10 mg in 1 mL stirred 24 h (Form I) or 48 h (Form II), supernatant pH 9.16, HPLC) [µg/mL] | Stability of crystalline form to the milling process ([2]; listed as Crystalline Form II of Compound 5)
Cc1cc(C(=O)Nc2cc(Oc3ccc4nc(NC(=O)CCCN5CCC6(CC5)COC6)cn4n3)ccc2C)n(C)n1 [Crystalline Form I, N-(5-((2-(4-(2-oxa-7-azaspiro[3.5]nonan-7-yl)butanamido)imidazo[1,2-b]pyridazin-6-yl)oxy)-2-methylphenyl)-1,3-dimethyl-1H-pyrazole-5-carboxamide] | converted to amorphous | Amorphous | 27.8 (≈ 48.5 µM) | not stable to the milling process | – | –
Cc1cc(C(=O)Nc2cc(Oc3ccc4nc(NC(=O)CCCN5CCC6(CC5)COC6)cn4n3)ccc2C)n(C)n1 [Crystalline Form II, N-(5-((2-(4-(2-oxa-7-azaspiro[3.5]nonan-7-yl)butanamido)imidazo[1,2-b]pyridazin-6-yl)oxy)-2-methylphenyl)-1,3-dimethyl-1H-pyrazole-5-carboxamide] | stable | – | – | – | 15.76 (≈ 27.5 µM) | stable to the milling process

Source: patent publication US10253045B2, “Crystalline forms of a therapeutic compound and uses thereof” (Kala Pharmaceuticals, Inc., priority 2014, dated 2019)
